Data from patent US6372781B1, “Compounds for treating gastroduodenal diseases” (Pfizer Inc., priority 1994, dated 2002).

Columns and labels:
Saccharomyces cerevisiae = conditions: against Saccharomyces cerevisiae; cited from earlier work
Aspergillus niger = conditions: against Aspergillus niger; cited from earlier work
Bacillus subtilis = conditions: against Bacillus subtilis; cited from earlier work
Helicobacter pylori [1] = experiment: in vitro screen against Helicobacter pylori (agar dilution / microdilution broth MIC); format: cell-based
Botrytis cinerea = conditions: against Botrytis cinerea; cited from earlier work
Ophiostoma ulmi = conditions: against Ophiostoma ulmi; cited from earlier work
Bacillus cereus = conditions: against Bacillus cereus; cited from earlier work
Escherichia coli = conditions: against Escherichia coli; cited from earlier work
Cladosporium cucumerinum = conditions: against Cladosporium cucumerinum; cited from earlier work
Helicobacter pylori [2] = conditions: cited from earlier work

Compound | antifungal activity (Saccharomyces cerevisiae) | antifungal activity (Aspergillus niger) | bacteriostatic activity (Bacillus subtilis) | helicobactericidal activity (kills Helicobacter pylori) (Helicobacter pylori [1]) | antifungal activity (Botrytis cinerea) | antifungal activity (Ophiostoma ulmi) | bacteriostatic activity (Bacillus cereus) | bacteriostatic activity (Escherichia coli) | antifungal activity (Cladosporium cucumerinum) | helicobactericidal activity (Helicobacter pylori [2])
COc1cc(O)cc2c1C(=O)OC2CCCCCC1CCCC2(CCC(C)O2)O1 (stereo not shown) [spirolaxine] | no antifungal activity | no antifungal activity | weak bacteriostatic activity | potent helicobactericidal | no antifungal activity | no antifungal activity | weak bacteriostatic activity | weak bacteriostatic activity | no antifungal activity | 
colloidal bismuth subcitrate |  |  |  |  |  |  |  |  |  | helicobactericidal
